As usually defined, the IC50 is the concentration that gives 50% inhibition.

Read-outs that look alike come from different tables or passages of the source.

In the assay the target is BTK (Homo sapiens (Human), UniProt Q06187). The assay is described as follows: Btk in vitro inhibitory activity (one of Method A TR-FRET, Method B electrophoretic mobility shift, Method C radiometric filter binding). The assay is classed as biochemical. Background: A gel shift assay detects complexes by their altered migration in electrophoresis.
Where [1] appears, read: determined using one of the methods of Example 355a, 355b and 355c, read-out: BTK IC50.

BTK, sequence (Q06187 whole entry): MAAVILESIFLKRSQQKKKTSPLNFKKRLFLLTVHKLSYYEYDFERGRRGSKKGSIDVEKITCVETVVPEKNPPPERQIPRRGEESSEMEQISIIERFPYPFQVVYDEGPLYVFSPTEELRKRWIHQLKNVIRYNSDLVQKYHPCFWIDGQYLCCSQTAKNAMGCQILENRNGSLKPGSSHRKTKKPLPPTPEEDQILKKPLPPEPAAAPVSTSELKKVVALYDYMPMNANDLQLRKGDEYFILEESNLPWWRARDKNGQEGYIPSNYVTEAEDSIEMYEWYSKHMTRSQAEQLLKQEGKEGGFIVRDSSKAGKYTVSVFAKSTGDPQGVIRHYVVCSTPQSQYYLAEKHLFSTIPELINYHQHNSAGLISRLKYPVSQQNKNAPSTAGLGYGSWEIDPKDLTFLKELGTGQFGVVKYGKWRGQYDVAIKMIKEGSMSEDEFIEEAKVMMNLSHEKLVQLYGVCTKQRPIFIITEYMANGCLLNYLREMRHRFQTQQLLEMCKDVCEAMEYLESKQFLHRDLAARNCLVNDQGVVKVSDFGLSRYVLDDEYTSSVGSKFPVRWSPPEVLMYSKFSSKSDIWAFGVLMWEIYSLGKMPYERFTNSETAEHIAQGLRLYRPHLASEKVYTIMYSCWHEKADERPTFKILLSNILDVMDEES

In the case of `C[C@@H]1[C@H](NC(=O)N(C)C)CCCN1c1cnc(C(N)=O)c(Nc2ccc(C3(C(N)=O)CCCC3)cc2)n1` [Example 249, 3-(4-(1-carbamoylcyclopentyl)phenylamino)-5-((2R,3R)-3-(3,3-dimethylureido)-2-methylpiperidin-1-yl)pyrazine-2-carboxamide], the IC50 is, setting by setting: under setting [1], below 10 nM; (read-out: Btk (IC50)) below 10 nM.
As to `CN(C)C(=O)N[C@@H]1CCCN(c2cnc(C(N)=O)c(Nc3ccc(C(=O)Nc4ccccn4)cc3)n2)C1` [Example 196, (R)-5-(3-(3,3-dimethylureido)piperidin-1-yl)-3-(4-(pyridin-2-ylcarbamoyl)phenylamino)pyrazine-2-carboxamide], the IC50 under setting [1] lay within 10 to 100 nM.
For the compound `CN(C)C(=O)N[C@@H]1CCCN(c2cnc(C(N)=O)c(Nc3ccc(C(=O)N(C)C)cc3)n2)C1` [Example 194, (R)-3-(4-(dimethylcarbamoyl)phenylamino)-5-(3-(3,3-dimethylureido)piperidin-1-yl)pyrazine-2-carboxamide], the IC50 runs as follows: under setting [1], below 10 nM; (read-out: Btk (IC50)) below 10 nM.
In the case of `CN(C)C(=O)N[C@@H]1CCCN(c2cnc(C(N)=O)c(Nc3ccc(C4CCN(C5CCCCC5)CC4)cc3)n2)C1` [Example 210, (R)-3-(4-(1-cyclohexylpiperidin-4-yl)phenylamino)-5-(3-(3,3-dimethylureido)piperidin-1-yl)pyrazine-2-carboxamide], the IC50 is below 10 nM under setting [1] and below 10 nM (read-out: Btk (IC50)).
Take `CN(C)C(=O)N[C@@H]1CCCN(c2cnc(C(N)=O)c(Nc3ccn(C)c(=O)c3)n2)C1` [Example 185, (R)-5-(3-(3,3-dimethylureido)piperidin-1-yl)-3-(1-methyl-2-oxo-1,2-dihydropyridin-4-ylamino)pyrazine-2-carboxamide]: the IC50 runs as follows: (Btk (IC50)) 100 to 1000 nM; under setting [1], 100 to 1000 nM.
Consider `NC(=O)c1nnc(N2CCC[C@@H](NC(=O)C3CCN(C4CCCC4)CC3)C2)nc1Nc1ccc(C(=O)N2CCOCC2)cc1` [Example 33, (R)-3-(3-(1-cyclopentylpiperidine-4-carboxamido)piperidin-1-yl)-5-(4-(morpholine-4-carbonyl)phenylamino)-1,2,4-triazine-6-carboxamide], for which the IC50 under setting [1] was in the range of 10 to 100 nM.
Regarding `CN(C)C(=O)N[C@@H]1CCCN(c2cnc(C(N)=O)c(Nc3ccc(C4CCN(C5CCOCC5)CC4)cc3)n2)C1` [Example 176, (R)-5-(3-(3,3-dimethylureido)piperidin-1-yl)-3-(4-(1-(tetrahydro-2H-pyran-4-yl)piperidin-4-yl)phenylamino)pyrazine-2-carboxamide], the IC50 reads like this: under setting [1], below 10 nM; (read-out: Btk (IC50)) below 10 nM.
As for `CC(C)(C)c1ccc(NC(=O)N[C@@H]2CCCN(c3nnc(C(N)=O)c(Nc4ccc(C(=O)N5CCOCC5)cc4)n3)C2)cc1` [Example 79, (R)-3-(3-(3-(4-tert-butylphenyl)ureido)piperidin-1-yl)-5-(4-(morpholine-4-carbonyl)phenylamino)-1,2,4-triazine-6-carboxamide], the IC50 is, setting by setting: (Btk (IC50)) 10 to 100 nM; under setting [1], 10 to 100 nM.
Regarding `NC(=O)c1ncc(N2CCC[C@H]3NCC[C@H]32)nc1Nc1ccc(C2CCN(C3CCCC3)CC2)cc1` [Example 286, 3-(4-(1-cyclopentylpiperidin-4-yl)phenylamino)-5-((3aR,7aR)-dihydro-1H-pyrrolo[3,2-b]pyridin-4(2H,5H,6H,7H,7aH)-yl)pyrazine-2-carboxamide], the IC50 is, setting by setting: under setting [1], 10 to 100 nM; (read-out: Btk (IC50)) 10 to 100 nM.
Turning to `COc1ccc(C(=O)N[C@@H]2CCCN(c3cnc(C(N)=O)c(Nc4ccc(N5CCOCC5)c(F)c4)n3)C2)cc1` [Example 125, (R)-3-(3-fluoro-4-morpholinophenylamino)-5-(3-(4-methoxybenzamido)piperidin-1-yl)pyrazine-2-carboxamide], the IC50 under setting [1] is below 10 nM.
`CN(C)C(=O)N[C@@H]1CCCN(c2cnc(C(N)=O)c(Nc3cnn(C4CCN(C(=O)C5CC5)CC4)c3)n2)C1` [Example 219, (R)-3-(1-(1-(cyclopropanecarbonyl)piperidin-4-yl)-1H-pyrazol-4-ylamino)-5-(3-(3,3-dimethylureido)piperidin-1-yl)pyrazine-2-carboxamide]: the IC50 was 10 to 100 nM (Btk (IC50)) and 10 to 100 nM under setting [1].
Turning to `CN1CCN([C@@H]2CCCN(c3cnc(C(N)=O)c(Nc4ccc(C5(C#N)CCN(C6CCCC6)CC5)cc4)n3)C2)C1=O` [Example 271, (R)-3-(4-(4-cyano-1-cyclopentylpiperidin-4-yl)phenylamino)-5-(3-(3-methyl-2-oxoimidazolidin-1-yl)piperidin-1-yl)pyrazine-2-carboxamide], the IC50 (read-out: Btk (IC50)) is below 10 nM.
`CN(C)C(=O)N[C@@H]1CCCN(c2cnc(C(N)=O)c(Nc3ccc(C4(C(=O)N(C)C)CC4)cc3)n2)C1` [Example 202, (R)-3-(4-(1-(dimethylcarbamoyl)cyclopropyl)phenylamino)-5-(3-(3,3-dimethylureido)piperidin-1-yl)pyrazine-2-carboxamide]: the IC50 is, setting by setting: under setting [1], below 10 nM; (read-out: Btk (IC50)) below 10 nM.
Take `CCCOc1ccc(C(=O)N[C@@H]2CCCN(c3nnc(C(N)=O)c(Nc4ccc(C(=O)N5CCOCC5)cc4)n3)C2)cc1` [Example 89, (R)-5-(4-(morpholine-4-carbonyl)phenylamino)-3-(3-(4-propoxybenzamido)piperidin-1-yl)-1,2,4-triazine-6-carboxamide]: the IC50 under setting [1] is below 10 nM and the IC50 (read-out: Btk (IC50)) is below 10 nM.
Turning to `NC(=O)c1nnc(N2CCC[C@@H](Oc3nccc4cc(C5CC5)cc(F)c34)C2)nc1Nc1ccc(C(=O)N2CCOCC2)cc1` [Example 48, (R)-3-(3-(6-cyclopropyl-8-fluoroisoquinolin-1-yloxy)piperidin-1-yl)-5-(4-(morpholine-4-carbonyl)phenylamino)-1,2,4-triazine-6-carboxamide], the IC50 under setting [1] was in the range of 100 to 1000 nM.
On the same count and under the same terms, to `COCCOc1ccc(Nc2nc(N3CCC[C@@H](NC(=O)N[C@H](C)c4ccccc4)C3)cnc2C(N)=O)cc1` [Example 347, 3-(4-(2-methoxyethoxy)phenylamino)-5-((R)-3-(3-((R)-1-phenylethyl)ureido)piperidin-1-yl)pyrazine-2-carboxamide] belongs 10 to 100 nM.
Still for that read-out and setting: the value for `CN(C)C(=O)N[C@@H]1CCCN(c2cnc(C(N)=O)c(Nc3cnn(C4CC4)c3)n2)C1` [Example 216, (R)-3-(1-cyclopropyl-1H-pyrazol-4-ylamino)-5-(3-(3,3-dimethylureido)piperidin-1-yl)pyrazine-2-carboxamide] was 10 to 100 nM.
For the compound `CN(C)C(=O)N[C@@H]1CCCN(c2cnc(C(N)=O)c(Nc3ccc([N+](=O)[O-])cc3)n2)C1` [Example 192, (R)-5-(3-(3,3-dimethylureido)piperidin-1-yl)-3-(4-nitrophenylamino)pyrazine-2-carboxamide], the IC50 lay in the range of 10 to 100 nM (Btk (IC50)) and 10 to 100 nM under setting [1].
On to `CN(C)C(=O)N[C@@H]1CCCN(c2cnc(C(N)=O)c(Nc3ccc(C4(C#N)CC4)cc3)n2)C1` [Example 199, (R)-3-(4-(1-cyanocyclopropyl)phenylamino)-5-(3-(3,3-dimethylureido)piperidin-1-yl)pyrazine-2-carboxamide], for which the IC50 was below 10 nM under setting [1] and below 10 nM (read-out: Btk (IC50)).
Turning to `CCC(=O)N1CCC(c2ccc(Nc3nc(N4CCC[C@@H](NC(=O)N5CCCCC5)C4)cnc3C(N)=O)cc2)CC1` [Example 149, (R)-5-(3-(piperidine-1-carboxamido)piperidin-1-yl)-3-(4-(1-propionylpiperidin-4-yl)phenylamino)pyrazine-2-carboxamide], the IC50 (Btk (IC50)) was 10 to 100 nM and the IC50 under setting [1] was 10 to 100 nM.
For `NC(=O)c1nnc(N2CCC[C@@H](NC(=O)c3cccnc3)C2)nc1Nc1ccc(C(=O)N2CCOCC2)cc1` [Example 13, (R)-5-(4-(morpholine-4-carbonyl)phenylamino)-3-(3-(nicotinamido)piperidin-1-yl)-1,2,4-triazine-6-carboxamide], the IC50 under setting [1] was 10 to 100 nM.
The same measure, in the same setting: the value for `NC(=O)c1nnc(N2CCC[C@@H](NC(=O)c3ccn4ccnc4c3)C2)nc1Nc1ccc(C(=O)N2CCOCC2)cc1` [Example 20, (R)—N-(1-(6-carbamoyl-5-(4-(morpholine-4-carbonyl)phenylamino)-1,2,4-triazin-3-yl)piperidin-3-yl)imidazo[1,2-a]pyridine-7-carboxamide] was 10 to 100 nM; that for `COc1ccc(C(=O)N[C@@H]2CCCN(c3cnc(C(N)=O)c(Nc4ccc(C5CCOCC5)cc4)n3)C2)cc1` [Example 122, (R)-5-(3-(4-methoxybenzamido)piperidin-1-yl)-3-(4-(tetrahydro-2H-pyran-4-yl)phenylamino)pyrazine-2-carboxamide] was below 10 nM.
Turning to `CN1CCN([C@@H]2CCCN(c3cnc(C(N)=O)c(Nc4ccccc4)n3)C2)C1=O` [Example 261, (R)-5-(3-(3-methyl-2-oxoimidazolidin-1-yl)piperidin-1-yl)-3-(phenylamino)pyrazine-2-carboxamide], the IC50 fell in the range of 10 to 100 nM. Besides, the IC50 under setting [1] was 10 to 100 nM.
On to `CCC(=O)N1CCC[C@@H](Nc2nnc(C(N)=O)c(Nc3ccc(C(=O)N4CCOCC4)cc3)n2)C1` [Example 63, (R)-5-(4-(morpholine-4-carbonyl)phenylamino)-3-(1-propionylpiperidin-3-ylamino)-1,2,4-triazine-6-carboxamide], for which, under setting [1], the IC50 was below 10 nM.
Turning to `NC(=O)c1nnc(N2CCC[C@@H](NS(=O)(=O)c3ccccc3)C2)nc1Nc1ccc(C(=O)N2CCOCC2)cc1` [Example 41, (R)-5-(4-(morpholine-4-carbonyl)phenylamino)-3-(3-(phenylsulfonamido)piperidin-1-yl)-1,2,4-triazine-6-carboxamide], the IC50 under setting [1] is below 10 nM.
For the compound `CN(C)C(=O)N[C@@H]1CCCN(c2cnc(C(N)=O)c(Nc3ccc(C4(C#N)CCCC4)cc3)n2)C1` [Example 203, (R)-3-(4-(1-cyanocyclopentyl)phenylamino)-5-(3-(3,3-dimethylureido)piperidin-1-yl)pyrazine-2-carboxamide], the concentration for half-maximal inhibition (IC50) is, setting by setting: (Btk (IC50)) below 10 nM; under setting [1], below 10 nM.
In the case of `NC(=O)c1nnc(N2CCC[C@@H](NC(=O)C3CCOCC3)C2)nc1Nc1ccc(C(=O)N2CCOCC2)cc1` [Example 30, (R)-5-(4-(morpholine-4-carbonyl)phenylamino)-3-(3-(tetrahydro-2H-pyran-4-carboxamido)piperidin-1-yl)-1,2,4-triazine-6-carboxamide], under setting [1], the IC50 is 10 to 100 nM.

These data come from patent US9656988B2 (Pharmacyclics LLC, priority 2013, dated 2017).
